The test system of assay [1] is CD44^hiCD24^lo CSCs in MDA-MB-231 cells. As to the kind of experiment: FACS analysis of CD44^hiCD24^lo cancer stem cells in MDA-MB-231 cells treated with P1 analogues. In kind it is cell-based, human. To be noted: 50 μM peptide, 48 hours; for CD44^hiCD24^lo CSCs (%) / COI, Live Single CD44^hiCD24^lo CSCs (Cell Count): n = 1. The procedure: Analogues of P1 (Table 6) were designed and synthesized in accordance with the procedure of Example 5. The ability of these analogues to inhibit cancer stem cells was determined using FACS analysis on MDA-MB-231 cells, which constitutively contain approximately 90% CD44^hiCD24^lo cancer stem cells, treated with the peptides.
(§1) Non-adherent cells were removed during the washing steps.

In assay [2] the test system is CD44^hiCD24^lo CSCs in MCF7 cells. In words: FACS analysis of CD44^hiCD24^lo CSCs in MCF7 cells. In kind it is cell-based, human. The note with it: 50 μM peptide, 48 hours. The procedure: (§2) P1 Analogues were synthesized in accordance with the procedure of Example 5. 4×10^4 MDA-MB-231 cells or 1×10^4 induced or non-induced MCF7 cells were seeded in a 12 well plate with 1 mL complete media overnight. Induced MCF7 cells were prepared by stimulating cells with PMA/TGF-β and incubating for 12 hours. Cells were treated with 50 μM test peptide (dissolved in water) for 48 hours. Cells were then washed twice with 1 mL PBS and harvested by trypsinisation. Non-adherent cells were removed during the washing steps. Adherent cells were collected, and were subsequently stained with anti-human CD44, CD24 and Hoechst 33342 antibodies on ice for 30 mins. FACS was performed on BD FACS LSRII to measure the percentage of CD44^hiCD24^lo CSCs by dividing CD44^hiCD24^lo events by total live cell counts (Hoechst negative population) (as described in Fillmore and Kuperwasser (2007) Breast Cancer Res, 9: 303). The percentage of viable cells was calculated by dividing total live cell events by total single cells as described previously (Siemann and Keng (1986), Cancer Res, 46: 3556-3559).

The next assay relates to induced MCF7 cells. In words: FACS CSC inhibition in induced MCF7 cells. The note with it: induced MCF7 cells (PMA/TGF-β), 50 μM peptide, 48 hours. In kind it is cell-based, human. How it is done:
as §2

A further assay has as its system MDA-MB-231 cells. In kind it is cell-based, human. The note with it: for COI (Cell Count) / COI, Live Single Cells (Cell Count) / COI, Single (Cell Count) / Total Cell Count: 50 μM peptide, 48 hours, n = 1.
Excerpt: as §1

Another assay has as its system MCF7 cells. The note with it: MCF7 cells, 50 μM peptide, 48 hours. How it is done: as §2
The subject of assay [3] is PD-L1 acetylated at lysine 263. As to the kind of experiment: Immunofluorescence (confocal) of acetylated PD-L1 in MDA-MB-231 cells, Example 6. It is filed as cell-based, human. To be noted: 50 μM, 72 hours. The procedure: (§3) Confocal laser scanning microscopy was employed to investigate the effect of P1, P2 and P3 (synthesized in accordance with Example 5) on the nuclear expression of PD-L1 and acetylated PD-L1 (PDL1-Ac) (FIG. 9).
(§4) 1×10^4 MDA-MB-231 cells were seeded onto coverslips in 12 well plates with DMEM media overnight. Cells were treated with 50 μM P1, P2, P3 or P4 or vehicle (water) for 72 hours. Treated cells were fixed with 3.7% formaldehyde, and then permeabilised by incubating with 1% Triton X-100 for 20 min. Cells were then probed with a rabbit anti-PD-L1 antibody (Santa Cruz Biotechnology) or rabbit anti-acetylated PD-L1 (generated as described above) and visualized with a donkey anti-rabbit AF 488. Cover slips were mounted on glass microscope slides with ProLong Diamond Antifade reagent (Life Technologies). Protein targets were localized using confocal laser scanning microscopy. Single 0.5 μm sections were obtained using a Leica DMI8 microscope using 100× oil immersion lens running LAX software. The final image was obtained by averaging four sequential images of the same section. Digital images were analyzed using ImageJ software as described above.

The next assay deals with SETDB1. As to the kind of experiment: Immunofluorescence of SETDB1 in MDA-MB-231 cells. The note with it: 50 μM, 72 hours. In kind it is cell-based, human. How it is done: (§5) Cells were treated with 50 μM P1, P2, P3 or P4 (synthesized in accordance with Example 5) or vehicle (water) for 72 hours. […] Confocal laser scanning microscopy was used to measure the […] and TCFI as described above. At least 20 individual cells were analyzed per sample.

The subject of the next assay is DMNTI. As to the kind of experiment: Immunofluorescence of DMNTI in MDA-MB-231 cells. In kind it is cell-based, human. To be noted: 50 μM, 72 hours. The procedure:
as §5

In assay [4] the test system is PD-L1. In words: Immunofluorescence (confocal) of PD-L1 in MDA-MB-231 cells, Example 6. It is filed as cell-based, human. The note with it: 50 μM, 72 hours. The procedure: as §3, §4
Another assay has as its target T1, p300 (Homo sapiens, UniProt Q09472).
T1 construct: endogenous in cells; host or cells: MDA-MB-231
In words: Immunofluorescence of p300 localization in MDA-MB-231 cells. It is filed as cell-based. The note with it: 50 μM. The procedure:
(§6) The effect of P1, P2, P3 and P4 (synthesized in accordance with Example 5) on p300 localization was examined using confocal laser scanning microscopy. […] Cover slips were mounted on glass microscope slides with ProLong Diamond Antifade reagent (Life Technologies). Protein targets were localized by confocal laser scanning microscopy as described above. TNFI and PCC(r) were calculated using ImageJ software as previously described.

In the next assay the test system is EHTM2. In words: Immunofluorescence of EHTM2 in MDA-MB-231 cells. It is filed as cell-based, human. To be noted: 50 μM, 72 hours. The procedure:
as §5

Assay [5] has as its system acetylated PD-L1 and p300. In words: Colocalization (PCC(r)) of acetylated PD-L1 and p300 in MDA-MB-231 cells. In kind it is cell-based, human. To be noted: 50 μm. How it is done: as §6
The test system of assay [6] is PD-L1. As to the kind of experiment: PD-L1 in MDA-MB-231 mouse xenografts treated with abraxane or docetaxel. The note with it: 35 days, compared with untreated cells. In kind it is in vivo. The procedure:
The expression of PD-L1 in mouse MDA-MB-231 xenografts treated for 35 days with abraxane (60 mg/kg) or docetaxel (10 mg/kg) was investigated using confocal laser scanning microscopy.
Five-week-old female nude mice were acquired and allowed to acclimatize for one week in the animal facility before experimentation. All experimental procedures were accessed and approved by The Australian National University Animal Experimental Ethics Committee (Ethics ID A2014/30). MDA-MB-231 human breast carcinoma cells were injected subcutaneously into the right mammary gland (2×10^6 cells in 1:1 PBS and BD Matrigel Matrix). Tumors were measured using external calipers and calculated using the modified ellipsoidal formula: […], where a=longest diameter and b=shortest diameter. Tumors were allowed to grow to around 50 mm^3 before commencing treatments (around 15 days). Abraxane (60 mg/kg) or Docetaxel (10 mg/kg) were administered by i.p. injection. Tumors were excised and collected in DMEM supplemented with 2.5% FCS. […] Digested tumors were spun and resuspended in DMEM, 2.5% FCS before being passed through a […] filter and PD-L1 nuclear localization was assessed using immunofluorescence microscopy as described supra.

Where a SMILES comes first, the peptide text is derived from it. The star is where a group is joined. Myristoyl = CCCCCCCCCCCCCC(=O)*
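For COI, Live Single Cells (Cell Count) in this document: live means Hoechst-negative events among single cells.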

T1 sequence (Q09472 whole entry): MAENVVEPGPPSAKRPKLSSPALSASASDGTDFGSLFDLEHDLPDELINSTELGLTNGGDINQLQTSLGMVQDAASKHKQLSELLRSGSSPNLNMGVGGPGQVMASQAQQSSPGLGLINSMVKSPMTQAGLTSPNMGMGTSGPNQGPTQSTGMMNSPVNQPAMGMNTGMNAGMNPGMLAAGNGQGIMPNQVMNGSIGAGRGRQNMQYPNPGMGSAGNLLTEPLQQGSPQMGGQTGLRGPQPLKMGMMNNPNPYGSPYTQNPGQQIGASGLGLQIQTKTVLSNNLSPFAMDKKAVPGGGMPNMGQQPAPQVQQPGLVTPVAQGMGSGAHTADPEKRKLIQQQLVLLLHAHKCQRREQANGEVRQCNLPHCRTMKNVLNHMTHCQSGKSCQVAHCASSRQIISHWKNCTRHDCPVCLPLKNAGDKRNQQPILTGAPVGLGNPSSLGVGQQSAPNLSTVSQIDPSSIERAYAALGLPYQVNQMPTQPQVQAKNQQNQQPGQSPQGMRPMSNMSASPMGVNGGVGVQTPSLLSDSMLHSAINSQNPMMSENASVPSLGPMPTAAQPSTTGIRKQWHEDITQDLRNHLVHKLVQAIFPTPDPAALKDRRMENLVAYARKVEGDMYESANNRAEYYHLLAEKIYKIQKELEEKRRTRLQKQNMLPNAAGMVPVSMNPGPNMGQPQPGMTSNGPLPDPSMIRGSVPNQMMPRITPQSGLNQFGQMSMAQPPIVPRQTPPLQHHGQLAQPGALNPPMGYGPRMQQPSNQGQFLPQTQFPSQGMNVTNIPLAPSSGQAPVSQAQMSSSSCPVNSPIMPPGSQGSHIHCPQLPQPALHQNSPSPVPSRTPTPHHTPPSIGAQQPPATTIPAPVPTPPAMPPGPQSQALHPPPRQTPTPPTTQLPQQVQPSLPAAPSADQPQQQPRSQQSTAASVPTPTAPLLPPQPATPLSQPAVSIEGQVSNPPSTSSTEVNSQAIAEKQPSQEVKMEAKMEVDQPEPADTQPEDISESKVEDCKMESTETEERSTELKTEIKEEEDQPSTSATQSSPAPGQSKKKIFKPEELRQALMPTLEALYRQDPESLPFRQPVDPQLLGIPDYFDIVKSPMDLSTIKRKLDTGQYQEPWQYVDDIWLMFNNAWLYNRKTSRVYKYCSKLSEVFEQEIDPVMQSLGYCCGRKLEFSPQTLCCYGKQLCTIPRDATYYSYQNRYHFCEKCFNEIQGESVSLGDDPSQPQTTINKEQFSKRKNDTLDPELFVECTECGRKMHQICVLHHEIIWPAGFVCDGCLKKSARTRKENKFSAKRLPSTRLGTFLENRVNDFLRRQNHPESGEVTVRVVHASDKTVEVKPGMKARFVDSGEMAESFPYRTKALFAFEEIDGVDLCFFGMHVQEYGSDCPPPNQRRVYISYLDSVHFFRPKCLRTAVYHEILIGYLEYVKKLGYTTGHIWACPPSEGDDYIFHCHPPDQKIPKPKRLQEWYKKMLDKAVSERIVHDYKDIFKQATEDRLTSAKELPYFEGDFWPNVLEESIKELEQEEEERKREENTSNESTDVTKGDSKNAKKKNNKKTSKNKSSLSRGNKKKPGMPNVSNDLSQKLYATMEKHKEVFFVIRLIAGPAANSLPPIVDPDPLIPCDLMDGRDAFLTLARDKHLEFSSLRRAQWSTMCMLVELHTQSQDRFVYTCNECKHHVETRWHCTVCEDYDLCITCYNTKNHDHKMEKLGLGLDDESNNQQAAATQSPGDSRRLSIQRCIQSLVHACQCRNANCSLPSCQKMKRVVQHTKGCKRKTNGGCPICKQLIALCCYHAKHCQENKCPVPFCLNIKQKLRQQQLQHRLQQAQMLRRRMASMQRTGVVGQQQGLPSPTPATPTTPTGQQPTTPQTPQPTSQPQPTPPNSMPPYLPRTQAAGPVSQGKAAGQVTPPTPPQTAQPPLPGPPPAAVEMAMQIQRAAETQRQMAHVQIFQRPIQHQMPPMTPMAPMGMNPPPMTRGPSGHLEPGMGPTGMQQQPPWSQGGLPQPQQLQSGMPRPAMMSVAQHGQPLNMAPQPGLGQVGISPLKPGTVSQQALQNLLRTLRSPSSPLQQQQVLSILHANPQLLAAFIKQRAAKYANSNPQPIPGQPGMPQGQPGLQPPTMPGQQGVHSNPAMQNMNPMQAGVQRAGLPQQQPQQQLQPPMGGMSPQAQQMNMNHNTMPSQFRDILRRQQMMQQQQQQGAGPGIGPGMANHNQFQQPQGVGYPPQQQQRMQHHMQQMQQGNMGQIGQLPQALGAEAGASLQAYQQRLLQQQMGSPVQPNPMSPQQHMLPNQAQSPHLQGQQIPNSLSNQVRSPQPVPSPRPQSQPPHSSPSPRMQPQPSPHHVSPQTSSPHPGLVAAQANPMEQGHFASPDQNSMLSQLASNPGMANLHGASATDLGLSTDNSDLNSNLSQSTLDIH

For the molecule `CCCCCCCCCCCCCC(=O)N[C@@H](CC(C)C)C(=O)N[C@H](C(=O)N[C@@H](Cc1ccccc1)C(=O)N[C@H](C(=O)N[C@@H](Cc1ccccc1)C(=O)N[C@@H](CCCNC(=N)N)C(=O)N[C@@H](CC(C)C)C(=O)N[C@@H](CCCNC(=N)N)C(=O)N[C@@H](CCCCN)C(=O)NCC(=O)N[C@@H](CCCNC(=N)N)C(=O)N[C@@H](CCSC)C(=O)N[C@@H](CCSC)C(=O)N[C@@H](CC(=O)O)C(=O)N[C@@H](CCCCN)C(=O)N[C@@H](CCCCN)C(=O)N[C@@H](CCCCN)C(N)=O)[C@@H](C)CC)[C@@H](C)O` [Peptide 2853839, Myristoyl-LTFIFRLRKGRMMDKKK-NH2] (Myristoyl-LTFIFRLRKGRMMDKKK-NH2), in assay [1], the “Inhibition of CSCs (%) Repeat 1” value is listed as 100.00%, the “Inhibition of CSCs (%) Repeat 2” value came out at 100.00%, the “Inhibition of CSCs (%) Repeat 3” value is on record as 100.00% and the “CD44^hiCD24^lo CSCs (%)” value stood at 0.00%. In assay [1], the “COI, Live Single CD44^hiCD24^lo CSCs (Cell Count)” value was found to be 0. Further, in [1] (n = 3), the “Average Inhibition of CSCs (%)” value is given as 100.00%, the “CD44^hiCD24^lo CSCs (%) Repeat 1” value was 0.00%, the “CD44^hiCD24^lo CSCs (%) Repeat 2” value worked out at 0.00% and the “CD44^hiCD24^lo CSCs (%) Repeat 3” value turned out to be 0.00%. In assay [2], the “CD44^hiCD24^lo CSC %” value is reported as 1.14% and the “COI/Single Cells/Live/CD44^hiCD24^lo CSCs Count” value is given as 25. Besides, the “CSC inhibition (%)” value in the assay with induced MCF7 cells is given as 83.87%. In addition, in the assay with MDA-MB-231 cells, the “COI (Cell Count)” value came out at 12; the “COI, Live Single Cells (Cell Count)” value came to 2; the “COI, Single (Cell Count)” value turned out to be 10; the “Total Cell Count” value stood at 619. Further, the “killing of total MDA-MB-231 cells” value in the assay with MDA-MB-231 cells (not only the CSCs) is given as “killed the majority of the total MDA-MB-231 cells”. Further, in the assay with MCF7 cells, the “COI Count” value was determined as 3128, the “COI/Single Cell Count” value came out at 2294, the “COI/Single Cells/Live Count” value worked out at 2200 and the “Total Count” value is on record as 10000.
On to `CCCCCCCCCCCCCC(=O)N[C@@H](Cc1ccccc1)C(=O)N[C@@H](CCCNC(=N)N)C(=O)N[C@@H](CC(C)C)C(=O)N[C@@H](CCCNC(=N)N)C(=O)N[C@@H](CCCCN)C(=O)NCC(=O)N[C@@H](CCCNC(=N)N)C(=O)N[C@@H](CCSC)C(=O)N[C@@H](CCSC)C(=O)N[C@@H](CC(=O)O)C(=O)N[C@H](C(=O)N[C@@H](CCCCN)C(=O)N[C@@H](CCCCN)C(N)=O)C(C)C` [Peptide P4, Myristoyl-FRLRKGRMMDVKK-NH2] (Myristoyl-FRLRKGRMMDVKK-NH2), for which, in assay [1], the “CD44^hiCD24^lo CSCs (%)” value was 87.66% and the “COI, Live Single CD44^hiCD24^lo CSCs (Cell Count)” value amounted to 3311. The “localization of acetylated PD-L1” value in assay [3] is listed as “no effect”. For the same molecule, in the assay with SETDB1, the “expression / nuclear localization of SETDB1” value is recorded as “inhibited”. For the same molecule, the “expression / nuclear localization of DMNTI” value in the assay with DMNTI was “inhibited”. Also, the “localization of PD-L1” value with PD-L1 [4] was “no effect”. The p300 nuclear expression result at p300 is on record as “slightly decreased”. The “expression / localization of EHTM2” value in the assay with EHTM2 is on record as “did not have a significant effect”. In addition, the “colocalization of acetylated PD-L1 and p300” value in assay [5] is “no effect”. In addition, in the assay on MDA-MB-231 cells, the “COI (Cell Count)” value worked out at 4910; the “COI, Live Single Cells (Cell Count)” value worked out at 3777; the “COI, Single (Cell Count)” value is on record as 3903; the “Total Cell Count” value is 7923.
Take `CC(=O)O[C@@]12CO[C@@H]1C[C@H](O)[C@@]1(C)C(=O)[C@H](O)C3=C(C)[C@@H](OC(=O)[C@H](O)[C@@H](NC(=O)OC(C)(C)C)c4ccccc4)C[C@@](O)([C@@H](OC(=O)c4ccccc4)[C@H]21)C3(C)C` [docetaxel]: in the assay with PD-L1 [6], the “PD-L1 in the nucleus of surviving, resistant xenograft cells” value was “higher levels of PD-L1 in the nucleus”.

The values are drawn from patent US20200339691A1, “PROTEINACEOUS MOLECULES AND USES THEREFOR” (priority 2018, published 2020).
